Measurements: patent US11596611B2, “Hepatitis B antiviral agents” (ENANTA PHARMACEUTICALS, INC., priority 2017, dated 2023)
Like-named read-outs stand apart in the source and are kept apart here.

System: HBV
Experiment: HepAD38 antiviral assay: reduction of viral product accumulation (virion DNA by qPCR, HBsAg or HBeAg by ELISA)
Format: cell-based, hepatitis B virus
Details: Hepatitis B virus
Experimental: Methods: HepAD38 cells are maintained as previously reported (Ladner et al, Antimicrob. Agents Chemother. 1997, […], 1715). Briefly, cells are passaged upon attaining confluency in DMEM/F12 media in the presence of 10% FBS, Penn/Strep, 250 μg/mL G418, and 1 ug/ml tetracycline. Novel compounds are screened by first washing cells three times with PBS to remove tetracycline, and plating in 96 well plates at 35,000 cells/well. Compounds dissolved in DMSO are then diluted 1:200 into wells containing cells. Five days after compound addition, material is harvested for analysis. For an extended 8 days analysis, cells are plated and treated as described above, but media and compound are refreshed on d2 and d5 post initial treatment.
On harvest day, virion DNA is obtained by lysing with Sidestep Lysis and Stabilization Buffer and then quantified via quantitative real time PCR. Commercially available ELISA kits are used to quantitate the viral proteins HBsAg (Alpco) or HbeAg (US Biological) by following the manufacturer's recommended protocol after diluting samples to match the linear range of their respective assays.

[1] = 120 h, HepAD38 cells, five days after compound addition, 50% reduction of viral product vs no drug controls, read-out: HepAD38 EC50

O=C(Nc1ccc(F)c(F)c1)c1ccc(Cl)c(S(=O)(=O)C2CC(O)(CCCO)C2)c1 (centres unmarked) [Example 241]
EC50 [1]: > 0.2 µM

O=C(Nc1ccc(F)c(F)c1)c1ccc(Cl)c(S(=O)(=O)[C@@H]2CC3CC[C@@H](C2)[C@@]3(O)C(O)c2ccc3ccccc3n2)c1 (some centres unmarked) [Example 301]
EC50 [1]: < 0.104 µM

C[C@H](O)[C@@H](O)COC[C@]1(O)C2CCC1C[C@@H](S(=O)(=O)c1cc(C(=O)Nc3cc(F)c(F)c(F)c3)ccc1Cl)C2 (single isomer, unassigned) [Example 164]
EC50 [1]: < 0.104 µM

COC(=O)N[C@@H](CCC(N)=O)C(=O)NC[C@]1(O)C2CCC1C[C@@H](S(=O)(=O)c1cc(C(=O)Nc3cc(F)c(F)c(F)c3)ccc1Cl)C2 [Example 84]
EC50 [1]: > 0.2 µM

CC(C)(C)OC(=O)N1CC[C@@H](O)[C@H]1C(=O)NC[C@@]1(O)C2CC[C@H]1C[C@H](S(=O)(=O)c1cc(C(=O)Nc3cc(F)c(F)c(F)c3)ccc1Cl)C2 [Example 76]
EC50 [1]: < 0.104 µM

O=C(O)CC1(O)CC(S(=O)(=O)c2cc(C(=O)Nc3ccc(F)c(F)c3)ccc2Cl)C1 (centres unmarked) [Example 243]
EC50 [1]: > 0.2 µM

C[C@@H](CO)NC(=O)[C@H]1C[C@@H](S(=O)(=O)c2cc(C(=O)Nc3ccc(F)c(F)c3)ccc2Cl)C1 [Example 256b]
EC50 [1]: > 0.2 µM

COC[C@H](C)NC(=O)C[C@]1(O)C2CCC1C[C@@H](S(=O)(=O)c1cc(C(=O)Nc3cc(F)c(F)c(F)c3)ccc1Cl)C2 [Example 118]
EC50 [1]: < 0.104 µM

O=C(Nc1ccc(F)c(F)c1)c1ccc(Cl)c(S(=O)(=O)[C@H]2CC3CCC(C2)[C@]3(O)C(=O)O)c1 [Example 205]
EC50 [1]: > 0.2 µM

O=C(Nc1ccc(F)c(F)c1)c1ccc(Cl)c(S(=O)(=O)C2CC3CCC(C2)C3=O)c1 (centres unmarked) [Example 204]
EC50 [1]: 0.1 to 0.2 µM

O=C[C@]1(O)C2CCC1C[C@@H](S(=O)(=O)c1cc(C(=O)Nc3ccc(F)c(F)c3)ccc1Cl)C2 [Example 203]
EC50 [1]: < 0.104 µM

COC(=O)N1C[C@H](O)C[C@H]1C(=O)NC[C@]1(O)C2CCC1C[C@@H](S(=O)(=O)c1cc(C(=O)Nc3cc(F)c(F)c(F)c3)ccc1Cl)C2 [Example 8]
EC50 [1]: > 0.2 µM

COC(=O)N[C@@H](CO)C(=O)NC[C@]1(O)C2CCC1C[C@@H](S(=O)(=O)c1cc(C(=O)Nc3cc(F)c(F)c(F)c3)ccc1Cl)C2 [Example 49]
EC50 [1]: > 0.2 µM

O=C(Nc1ccc(F)c(F)c1)c1ccc(Cl)c(S(=O)(=O)[C@H]2C[C@H](CO)C2)c1 [Example 252a]
EC50 [1]: > 0.2 µM

CC(C)N(C)[C@H]1C2CCC1C[C@H](S(=O)(=O)c1cc(C(=O)Nc3ccc(F)c(F)c3)ccc1Cl)C2 [Example 307]
EC50 [1]: 0.1 to 0.2 µM

O=C(Nc1cc(F)c(F)c(F)c1)c1ccc(Cl)c(S(=O)(=O)[C@H]2CC3CCC(C2)[C@]3(O)CNC(=O)C2CCOC2)c1 (some centres unmarked) [Example 87]
EC50 [1]: < 0.104 µM

O=C(Nc1cc(F)c(F)c(F)c1)c1ccc(Cl)c(S(=O)(=O)[C@H]2C3CC[C@H]2C[C@](O)(C(O)C(O)CO)C3)c1 (mixture of isomers) [Example 64]
EC50 [1]: 0.1 to 0.2 µM

C[C@@]1(O)C2CC[C@H]1C[C@H](S(=O)(=O)c1cc(C(=O)Nc3ccc(F)c(F)c3)c(Cc3ccccc3)cc1Cl)C2 [Example 160]
EC50 [1]: > 0.2 µM

O=C(Nc1ccc(F)c(F)c1)c1ccc(Cl)c(S(=O)(=O)[C@H]2C3CC[C@H]2C[C@](O)(c2ncc[nH]2)C3)c1 [Example 6]
EC50 [1]: < 0.104 µM

CC(=O)C(=O)[C@@]1(O)C2CC[C@H]1C[C@H](S(=O)(=O)c1cc(C(=O)Nc3ccc(F)c(F)c3)ccc1Cl)C2 [Example 336]
EC50 [1]: < 0.104 µM

CCCCc1cc(Cl)c(S(=O)(=O)[C@H]2CC3CCC(C2)[C@@]3(C)O)cc1C(=O)Nc1ccc(F)c(F)c1 [Example 103]
EC50 [1]: < 0.104 µM

O=C(CCCO)NC[C@]1(O)C2CCC1C[C@@H](S(=O)(=O)c1cc(C(=O)Nc3cc(F)c(F)c(F)c3)ccc1Cl)C2 [Example 2]
EC50 [1]: 0.1 to 0.2 µM

CC1(C)OC[C@H](CN2C3CCC2CC(S(=O)(=O)c2cc(C(=O)Nc4cc(F)c(F)c(F)c4)ccc2Cl)C3)O1 (single isomer, unassigned) [Example 144]
EC50 (HePAD38, 120 h, read-out: HepAD38 EC50 (μM)): 0.1 to 0.2 µM

CC(C)(C)OC(=O)N1CC[C@H](O)[C@H]1C(=O)NC[C@@]1(O)C2CC[C@H]1C[C@H](S(=O)(=O)c1cc(C(=O)Nc3cc(F)c(F)c(F)c3)ccc1Cl)C2 [Example 77]
EC50 [1]: > 0.2 µM

C[C@]1(O)C2CCC1C[C@@H](S(=O)(=O)c1cc(C(=O)Nc3ccc(F)c(O)c3)ccc1Cl)C2 [Example 134]
EC50 [1]: > 0.2 µM

O=C(Nc1ccc(F)c(F)c1)c1ccc(Cl)c(S(=O)(=O)C2CC(C(=O)O)C2)c1 (centres unmarked) [Example 251]
EC50 [1]: > 0.2 µM

COCC(COC)OC[C@]1(O)C2CCC1C[C@@H](S(=O)(=O)c1cc(C(=O)Nc3cc(F)c(F)c(F)c3)ccc1Cl)C2 [Example 121]
EC50 [1]: < 0.104 µM

C[C@]1(O)C2CCC1C[C@@H](S(=O)(=O)c1cc(C(=O)Nc3cc(F)cc(F)c3)ccc1Cl)C2 [Example 105]
EC50 [1]: < 0.104 µM

O=C(Nc1ccc(F)c(F)c1)c1ccc(Cl)c(S(=O)(=O)[C@H]2CC3CC[C@@H](C2)[C@@]3(O)C(O)Cn2cccn2)c1 (some centres unmarked) [Example 310]
EC50 [1]: > 0.2 µM

O=C(Nc1cc(F)c(F)c(F)c1)c1ccc(Cl)c(S(=O)(=O)[C@@H]2CC3CC[C@@H](C2)[C@@]3(O)CNC(=O)C2CC2(O)CO)c1 (some centres unmarked) [Example 67]
EC50 [1]: > 0.2 µM

C[C@@]1(O)C2CC[C@H]1C[C@H](S(=O)(=O)c1cc(C(=O)Nc3cnccn3)ccc1Cl)C2 [Example 214]
EC50 [1]: > 0.2 µM

C[C@@]1(O)C2CC[C@H]1C[C@H](S(=O)(=O)c1cc(C(=O)Nc3ccc(F)c(C(F)(F)F)c3)ccc1Cl)C2 [Example 31]
EC50 [1]: 0.1 to 0.2 µM

COC(=O)N1CC[C@H](O)[C@H]1C(=O)NC[C@@]1(O)C2CC[C@H]1C[C@H](S(=O)(=O)c1cc(C(=O)Nc3cc(F)c(F)c(F)c3)ccc1Cl)C2 [Example 79]
EC50 [1]: > 0.2 µM

Cc1ccc(C(=O)Nc2ccc(F)c(F)c2)cc1S(=O)(=O)[C@H]1CC2CCC(C1)[C@@]2(C)O [Example 47]
EC50 [1]: 0.1 to 0.2 µM

CC(C)(C1CCC2(CC1)OCCO2)S(=O)(=O)c1cc(C(=O)Nc2ccc(F)c(F)c2)ccc1Cl [Example 231]
EC50 [1]: > 0.2 µM

O=C(Nc1cc(F)c(F)c(F)c1)c1ccc(Cl)c(S(=O)(=O)[C@H]2CC3CCC(C2)[C@]3(O)CNS(=O)(=O)CC(O)CO)c1 (some centres unmarked) [Example 40]
EC50 [1]: > 0.2 µM

NS(=O)(=O)OC[C@]1(O)CC2CC[C@@H](C1)[C@H]2S(=O)(=O)c1cc(C(=O)Nc2cc(F)c(F)c(F)c2)ccc1Cl [Example 3]
EC50 [1]: < 0.104 µM

COC(=O)NCC(O)C(=O)NC[C@]1(O)C2CCC1C[C@@H](S(=O)(=O)c1cc(C(=O)Nc3cc(F)c(F)c(F)c3)ccc1Cl)C2 (some centres unmarked) [Example 96]
EC50 [1]: 0.1 to 0.2 µM

O=C(Nc1ccc(F)c(F)c1)c1ccc(Cl)c(S(=O)(=O)C2CC(C(=O)NCCO)C2)c1 (centres unmarked) [Example 254]
EC50 [1]: > 0.2 µM

O=C(Nc1ccc(F)c(F)c1)c1ccc(Cl)c(S(=O)(=O)[C@H]2CC3CC[C@@H](C2)[C@@]3(O)C(O)CN2CCOC2=O)c1 (some centres unmarked) [Example 312]
EC50 [1]: > 0.2 µM

COC(=O)CCNC(=O)CC1(O)CC(S(=O)(=O)c2cc(C(=O)Nc3ccc(F)c(F)c3)ccc2Cl)C1 (centres unmarked) [Example 248]
EC50 [1]: > 0.2 µM

Cc1ccc(C(O)[C@]2(O)C3CCC2C[C@@H](S(=O)(=O)c2cc(C(=O)Nc4ccc(F)c(F)c4)ccc2Cl)C3)nc1 (some centres unmarked) [Example 293]
EC50 [1]: < 0.104 µM

C[C@]1(O)C2CCC1C[C@@H](S(=O)(=O)c1cc(C(=O)Nc3ccc(F)c(F)c3)c(-c3ccccc3)cc1Cl)C2 [Example 101]
EC50 [1]: > 0.2 µM

O=C(Nc1ccc(F)c(F)c1)c1ccc(Cl)c(S(=O)(=O)[C@@H]2CC3C[C@H](O)C(C2)[C@@]3(O)CO)c1 (some centres unmarked) [Example 327]
EC50 [1]: 0.1 to 0.2 µM
